Assay results reported in patent publication US20080255244A1, “CaM Kinase II Inhibitor Improves Retinoic Acid Therapy and Inhibits the Proliferation of Myeloid Leukemia Cells” (Fred Hutchinson Cancer Research Center, priority 2007, published 2008).

Tests used:
Assay type in all cases: cell-based, human
[1] = test system: activated CaMKIIγ in KG1 cells; assay: Western blot of CaMKIIγ autophosphorylation in KG1 cells; conditions: five days ATRA
Method: (§1) FIG. 9. Terminal differentiation/apoptosis of myeloid leukemia cells is associated with decreased CaMKIIγ activation. (A) Lysates from the HL60, NB4 and U937 myeloid cell lines treated with ATRA (1 μM) for the indicated period of time were subjected to Western blots. (B) Lysates from the indicated myeloid cell lines treated for five days with the indicated concentration of ATRA were subjected to Western blots. (C) Lysates from HL60 cells treated with TPA (0.1 μM) for the indicated time were subjected to Western blots. (D) Lysates from NB4 cells treated with arsenic trioxide (1 uM) for the indicated time were subjected to Western blots.
(§2) Antibodies and Western blots. Protein extracts, immunoprecipitations and Western blots were performed as previously detailed (Si J, Collins S J. IL-3-induced enhancement of retinoic acid receptor activity is mediated through Stat5, which physically associates with retinoic acid receptors in an IL-3-dependent manner. Blood 100: 4401-9 (2002)). Antibodies against CaMKI, CaMKIIγ, CaMKIV, c-myc, Stat3, Stat5, calmodulin, as well as the phosphospecific CaMKII (T286, 287) and phosphospecific CaMKI (T177) antibodies were from Santa Cruz Biotechnology. […]

[2] = test system: activated CaMKIIγ in U937 cells; assay: Western blot of CaMKIIγ autophosphorylation in U937 cells
Method: as §1, §2

[3] = test system: activated CaMKIIγ in THP1 cells; assay: Western blot of CaMKIIγ autophosphorylation in THP1 cells; conditions: five days ATRA
Method: as §1, §2

[4] = test system: activated CaMKIIγ in KCL22 cells; assay: Western blot of CaMKIIγ autophosphorylation in KCL22 cells; conditions: five days ATRA
Method: as §1, §2

[5] = test system: activated CaMKIIγ in HL60R cells; assay: Western blot of CaMKIIγ autophosphorylation in HL60R cells; conditions: five days ATRA
Method: as §1, §2

[6] = test system: Kasumi cells; assay: Differentiation of Kasumi cells; conditions: preliminary studies; not shown
From the text: (§3) Pharmacological CaMK inhibitors trigger myeloid leukemia cell differentiation. Particularly compelling evidence for the physiological importance of the CaMKII—mediated regulation of RAR activity is our experimental observation that KN-62, a pharmacological inhibitor of the CaMKs, enhances both RAR transcriptional activity (FIG. 1B) and the differentiation of certain myeloid leukemia cell lines (FIG. 7). Acute myelogenous leukemia (AML) is a heterogenous disease, and successful therapy with RA has been generally confined to those leukemias harboring RARα chromosome translocations.

[7] = test system: NB4 subclones that are unresponsive to ATRA; assay: Differentiation of ATRA-unresponsive NB4 subclones
From the text: as §3

[8] = test system: Kasumi cells; assay: Kasumi proliferation in liquid suspension culture
Method: (§4) FIG. 11. […] (A) K562 cells were seeded in liquid suspension culture at 5×10^4 cells/ml in the presence or absence of the indicated concentration of compounds, and cell counts were obtained at the indicated time. (B) The indicated myeloid leukemia cell lines were seeded in liquid suspension culture at 5×10^4 cells/ml in the presence or absence of KN93, and cell counts obtained at the indicated time. (C) K562 cells were electroporated with the LXSN expression vector harboring the kinase dead, Lys^43 mutated, truncated CaMKII construct (kdCaMKII) as well as with the control (empty) LXSN vector. The electroporated cells were diluted into 96 well plates in liquid suspension culture in the presence of G418 (1 mg/ml). Following eight days of culture the total number of discrete, actively proliferating G418 resistant colonies within individual wells was determined.
(§5) Cell lines. All leukemia cell lines are cultured at 37° in RPMI supplemented with 5% heat-inactivated fetal calf serum.

[9] = test system: THP1 cells; assay: THP1 proliferation in liquid suspension culture
Method: as §4, §5

[10] = test system: Stat3 transcriptional activity in K562 cells; assay: Stat3 response element luciferase reporter in K562 cells; conditions: 48 hours of culture
Method: FIG. 13. Stat3 is directly phosphorylated and activated by CaMKIIγ at Ser727. (A, i). Cell lysates from the indicated human leukemia cell lines were subjected to Western blots utilizing the indicated Stat3 antibodies. ii). Cell lysates from the same primary AML samples depicted in FIG. 1B were subjected to Western blots utilizing the indicated Stat3 antibodies. B). The IL-3 dependent TonB210.1 cells were deprived of IL-3 for 24 hours. The cells were then treated with the indicated compounds immediately prior to the addition of doxycycline. After an additional 24 hours cell lysates were harvested and subjected to Western blots with the indicated Stat3 antibodies. C). K562 cells were electroporated with a luciferase reporter driven by a Stat3 response element. The indicated concentrations of KN93 and the Stat 3 inhibitor, cucurbitacin I, were added and relative luciferase activity determined on cell lysates following 48 hours of culture. D, i) K562 cell lysates were immunoprecipitated with control IgG or a Stat3 antibody. […]
Transient transfections and luciferase assays. […] Stat3 transcriptional activity was determined in K562 cells transfected with the pSIE-tk-LUC luciferase reporter which harbors a Stat3 binding site ([…]). […]

Compound: CC1=C(/C=C/C(C)=C/C=C/C(C)=C/C(=O)O)C(C)(C)CCC1 [ATRA, All-trans retinoic acid]
- activated CaMKIIγ level [1]: did not exhibit any decrease
- total CaMKIIγ level [2]: essentially unchanged
- activated CaMKIIγ level ([2]; ATRA 1 μM): marked decrease
- activated CaMKIIγ level [3]: did not exhibit any decrease
- activated CaMKIIγ level [4]: did not exhibit any decrease
- activated CaMKIIγ level [5]: not observed

Compound: CN([C@@H](Cc1ccc(OS(=O)(=O)c2cccc3cnccc23)cc1)C(=O)N1CCN(c2ccccc2)CC1)S(=O)(=O)c1cccc2cnccc12 [KN-62]
- differentiation of Kasumi [6]: does not induce
- KN62-mediated differentiation of ATRA-unresponsive NB4 subclones [7]: do not observe any

Compound: COc1ccc(S(=O)(=O)N(CCO)c2ccccc2CN(C)C/C=C/c2ccc(Cl)cc2)cc1 [KN-93]
- cell proliferation [8]: inhibition
- cell viability or morphologic differentiation [8]: without any significant effect
- cell proliferation [9]: inhibition
- cell viability or morphologic differentiation [9]: without any significant effect
- Stat3 responsive reporter activity [10]: inhibited
